Patent publication US20250230193A1, “CYCLIC COMPOUND HAVING SELECTIVE KRAS INHIBITORY EFFECT ON HRAS AND NRAS” (CHUGAI SEIYAKU KABUSHIKI KAISHA, priority 2022, published 2025)

Tests used:
[1] = biological target: GDP-bound NRAS wild-type protein (Homo sapiens, UniProt P01111); test: Binding to NRAS by surface plasmon resonance (SPR), Single Cycle Kinetics; conditions: for NRAS/KRAS (ratio of KD value for NRAS to KD value for KRAS) / NRAS/KRAS (ratio of KD value with respect to NRAS to KD value with respect to KRAS): GDP-bound NRAS wild-type vs GDP-bound KRAS wild-type, SPR; for NRAS/KRAS (ratio of KD value with respect to GDP-bound NRAS wild-type protein to KD value with respect to KRAS): class symbols
[2] = biological target: GDP-bound HRAS wild-type protein (Homo sapiens, UniProt P01112); test: Binding to HRAS by surface plasmon resonance (SPR), Single Cycle Kinetics; conditions: for HRAS/KRAS (ratio of KD value for HRAS to KD value for KRAS) / HRAS/KRAS (ratio of KD value with respect to HRAS to KD value with respect to KRAS): GDP-bound HRAS wild-type vs GDP-bound KRAS wild-type, SPR; for HRAS/KRAS (ratio of KD value with respect to GDP-bound HRAS wild-type protein to KD value with respect to KRAS): class symbols
Sequence of GDP-bound HRAS wild-type protein (P01112 whole entry): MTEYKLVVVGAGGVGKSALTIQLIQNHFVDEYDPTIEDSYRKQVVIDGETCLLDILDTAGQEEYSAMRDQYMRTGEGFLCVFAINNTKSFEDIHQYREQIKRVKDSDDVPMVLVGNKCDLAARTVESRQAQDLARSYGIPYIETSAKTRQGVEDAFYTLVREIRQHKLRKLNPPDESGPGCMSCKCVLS

Sequence of GDP-bound NRAS wild-type protein (P01111 whole entry): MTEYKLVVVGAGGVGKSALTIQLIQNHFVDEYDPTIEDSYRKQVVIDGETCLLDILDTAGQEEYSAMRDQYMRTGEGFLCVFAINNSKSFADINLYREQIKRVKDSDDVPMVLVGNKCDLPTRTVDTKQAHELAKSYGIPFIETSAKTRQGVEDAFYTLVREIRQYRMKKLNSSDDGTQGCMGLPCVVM

Structure (SMILES) | NRAS/KRAS (ratio of KD value for NRAS to KD value for KRAS) ([1]; KD ratio) | HRAS/KRAS (ratio of KD value for HRAS to KD value for KRAS) ([2]; KD ratio) | NRAS/KRAS (ratio of KD value with respect to GDP-bound NRAS wild-type protein to KD value with respect to KRAS) [1] | HRAS/KRAS (ratio of KD value with respect to GDP-bound HRAS wild-type protein to KD value with respect to KRAS) [2] | other results
CCCN(C)C(=O)[C@@H]1CC(=O)N(C)[C@@H](CC(F)F)C(=O)N[C@@H]([C@@H](C)CC)C(=O)N(C)CC(=O)N(C)[C@H]2C/C=C\CCN(C2=O)[C@@H](Cc2ccc(C(F)(F)F)cc2)C(=O)N(C)CC(=O)N[C@@H](CCc2ccc(C(F)(F)F)c(OC)c2)C(=O)N2C[C@H](OCC)C[C@H]2C(=O)NC2(CCC2)C(=O)N(C)[C@@H](C2CCCC2)C(=O)N1C [PP2013] | A (a compound having 10 or more and less than 20 is denoted as A) | B (a compound having 3 or more and less than 10 is denoted as B) | – | – | –
CCO[C@@H]1C[C@H]2C(=O)NC3(CC(C)(C)C3)C(=O)N(C)[C@@H](C3CCCC3)C(=O)N(C)[C@H](C(=O)N(C)CC)CC(=O)N(C)[C@@H](CC)C(=O)N[C@@H]([C@@H](C)CC)C(=O)N(C)CC(=O)N(C)[C@H]3C/C=C\CCN(C3=O)[C@@H](Cc3ccc(C(F)(F)F)cc3)C(=O)N(C)CC(=O)N[C@@H](CCc3ccc(C(F)(F)F)c(Cl)c3)C(=O)N2C1 [PP2823] | – | – | A (a compound having 10 or more and less than 20 is denoted as A) | A (a compound having 10 or more and less than 20 is denoted as A) | –
CCC[C@H]1C(=O)N[C@@H]([C@@H](C)CC)C(=O)N(C2CC2)CC(=O)N(C)[C@H]2C/C=C\CCN(C2=O)[C@@H](Cc2ccc(C(F)(F)F)cc2)C(=O)N(C)CC(=O)N[C@@H](CCc2ccc(C(F)(F)F)c(OC)c2)C(=O)N2C[C@H](OCC)C[C@H]2C(=O)NC2(CC(C)(C)C2)C(=O)N(C)[C@@H](CC2CC2)C(=O)N(C)[C@H](C(=O)N(C)C)CC(=O)N1C [PP2815] | – | – | A (a compound having 10 or more and less than 20 is denoted as A) | A (a compound having 10 or more and less than 20 is denoted as A) | –
CC[C@H](C)[C@@H]1NC(=O)[C@H](CC)N(C)C(=O)C[C@@H](C(=O)N2CCOCC2)N(C)C(=O)[C@H](C2CCCC2)N(C)C(=O)C2(CCCC2)NC(=O)[C@@H]2CCCN2C(=O)[C@H](CCc2ccc(C(F)(F)F)c(Cl)c2)NC(=O)CN(C)C(=O)[C@H](Cc2ccc(F)cc2)N2CCCCC[C@@H](C2=O)N(C)C(=O)CN(C)C1=O [PP0959] | – | – | – | – | NRAS/KRAS (ratio of KD value with respect to NRAS to KD value with respect to KRAS) ([1]; KD ratio): B (a compound having 3 or more and less than 10 is denoted as B); HRAS/KRAS (ratio of KD value with respect to HRAS to KD value with respect to KRAS) ([2]; KD ratio): B (a compound having 3 or more and less than 10 is denoted as B)
CCO[C@@H]1C[C@H]2C(=O)N(C)C3(CCC3)C(=O)N(C)[C@@H](C3CCCC3)C(=O)N(C)[C@H](C(=O)N(C)C)CC(=O)N(C)[C@@H](CC3CC3)C(=O)N[C@@H]([C@@H](C)CC)C(=O)N3CCC[C@H]3C(=O)N(C)[C@H]3C/C=C\CCN(C3=O)[C@@H](Cc3ccc(C)cc3)C(=O)N(C)CC(=O)N[C@@H](CCc3cc(F)c(C(F)(F)F)c(F)c3)C(=O)N2C1 [PP1797] | A (a compound having 10 or more and less than 20 is denoted as A) | A (a compound having 10 or more and less than 20 is denoted as A) | – | – | –
CC[C@H](C)[C@@H]1NC(=O)[C@H](COC)N(C)C(=O)C[C@@H](C(=O)N(C)C)N(C)C(=O)[C@H](C2CCCC2)N(C)C(=O)C2(CC(C)(C)C2)NC(=O)[C@@H]2C[C@H](C)CN2C(=O)[C@H](CCc2ccc(C(F)(F)F)c(OC)c2)NC(=O)CN(C)C(=O)[C@H](Cc2ccc(C)cc2)N2CC/C=C\C[C@@H](C2=O)N(C)C(=O)[C@@H]2C[C@H](C)CN2C1=O [PP2386] | – | – | – | – | NRAS/KRAS (ratio of KD value with respect to NRAS to KD value with respect to KRAS) [1]: A (a compound having 10 or more and less than 20 is denoted as A); HRAS/KRAS (ratio of KD value with respect to HRAS to KD value with respect to KRAS) [2]: B (a compound having 3 or more and less than 10 is denoted as B)
